Measured values: ChEMBL document CHEMBL3991601, “The target landscape of clinical kinase drugs” (Science, 2017)
The source made the active and inactive calls. For most assays here, no stated cut-off is given here; in the data, actives have a measured Kd and inactives only a lower limit.

Each compound was assayed against T1, DNA replication licensing factor MCM4 (Homo sapiens, UniProt P33991).
T1 sequence (P33991 whole entry): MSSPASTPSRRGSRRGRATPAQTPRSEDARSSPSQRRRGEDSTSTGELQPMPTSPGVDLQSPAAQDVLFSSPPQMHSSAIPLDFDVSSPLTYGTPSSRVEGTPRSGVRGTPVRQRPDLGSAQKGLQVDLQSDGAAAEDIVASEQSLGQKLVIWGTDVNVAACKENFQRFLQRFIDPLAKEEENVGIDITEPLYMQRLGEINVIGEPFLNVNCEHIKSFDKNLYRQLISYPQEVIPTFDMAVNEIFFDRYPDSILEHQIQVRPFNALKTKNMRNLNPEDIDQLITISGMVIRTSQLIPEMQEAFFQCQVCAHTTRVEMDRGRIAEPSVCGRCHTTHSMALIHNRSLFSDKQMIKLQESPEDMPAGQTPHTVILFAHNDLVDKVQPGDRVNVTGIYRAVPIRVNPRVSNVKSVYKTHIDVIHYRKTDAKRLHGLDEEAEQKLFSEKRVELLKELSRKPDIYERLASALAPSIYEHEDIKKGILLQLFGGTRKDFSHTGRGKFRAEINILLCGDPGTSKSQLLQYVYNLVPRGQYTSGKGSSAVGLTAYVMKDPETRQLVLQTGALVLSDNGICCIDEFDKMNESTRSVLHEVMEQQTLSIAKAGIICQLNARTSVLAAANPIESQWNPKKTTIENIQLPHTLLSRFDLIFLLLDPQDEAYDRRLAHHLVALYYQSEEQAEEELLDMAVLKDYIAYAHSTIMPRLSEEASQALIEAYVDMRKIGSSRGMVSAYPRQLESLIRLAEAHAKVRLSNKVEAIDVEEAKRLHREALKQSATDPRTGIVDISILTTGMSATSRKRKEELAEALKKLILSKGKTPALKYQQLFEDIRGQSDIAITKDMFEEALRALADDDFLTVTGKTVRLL
`O=c1sn(-c2cccc3ccccc23)c(=O)n1Cc1ccccc1` [TIDEGLUSIB] was tested, and the Kd was > 30 µM (inactive).
In the case of `CC(=O)Nc1cccc(-n2c(=O)n(C3CC3)c(=O)c3c(Nc4ccc(I)cc4F)n(C)c(=O)c(C)c32)c1` [TRAMETINIB], the Kd is reported as > 30 µM (inactive).

Each compound was assayed against Proto-oncogene tyrosine-protein kinase Src (Homo sapiens, UniProt P12931).
Chain of Proto-oncogene tyrosine-protein kinase Src (P12931 2-536 limits assumed): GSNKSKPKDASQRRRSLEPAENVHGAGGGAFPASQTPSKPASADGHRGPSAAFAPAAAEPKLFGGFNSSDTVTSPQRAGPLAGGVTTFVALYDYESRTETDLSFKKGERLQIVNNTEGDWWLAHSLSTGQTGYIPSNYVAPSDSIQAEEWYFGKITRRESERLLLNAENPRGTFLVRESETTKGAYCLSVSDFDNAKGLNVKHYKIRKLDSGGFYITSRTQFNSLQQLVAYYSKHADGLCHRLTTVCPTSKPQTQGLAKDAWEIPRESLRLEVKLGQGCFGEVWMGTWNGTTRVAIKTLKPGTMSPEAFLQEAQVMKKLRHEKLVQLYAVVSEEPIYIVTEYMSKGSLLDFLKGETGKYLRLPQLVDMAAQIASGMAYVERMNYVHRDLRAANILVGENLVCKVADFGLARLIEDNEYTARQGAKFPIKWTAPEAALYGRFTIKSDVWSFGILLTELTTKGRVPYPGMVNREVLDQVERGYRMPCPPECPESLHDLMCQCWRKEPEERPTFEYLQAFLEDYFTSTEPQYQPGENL
`O=c1sn(-c2cccc3ccccc23)c(=O)n1Cc1ccccc1` [TIDEGLUSIB] was tested, and the Kd was > 30 µM (inactive).
In the case of `CC(=O)Nc1cccc(-n2c(=O)n(C3CC3)c(=O)c3c(Nc4ccc(I)cc4F)n(C)c(=O)c(C)c32)c1` [TRAMETINIB], the Kd is reported as > 30 µM (inactive).

Each compound was assayed against Rho-associated protein kinase 1 (Homo sapiens, UniProt Q13464).
Chain of Rho-associated protein kinase 1 (Q13464 whole entry): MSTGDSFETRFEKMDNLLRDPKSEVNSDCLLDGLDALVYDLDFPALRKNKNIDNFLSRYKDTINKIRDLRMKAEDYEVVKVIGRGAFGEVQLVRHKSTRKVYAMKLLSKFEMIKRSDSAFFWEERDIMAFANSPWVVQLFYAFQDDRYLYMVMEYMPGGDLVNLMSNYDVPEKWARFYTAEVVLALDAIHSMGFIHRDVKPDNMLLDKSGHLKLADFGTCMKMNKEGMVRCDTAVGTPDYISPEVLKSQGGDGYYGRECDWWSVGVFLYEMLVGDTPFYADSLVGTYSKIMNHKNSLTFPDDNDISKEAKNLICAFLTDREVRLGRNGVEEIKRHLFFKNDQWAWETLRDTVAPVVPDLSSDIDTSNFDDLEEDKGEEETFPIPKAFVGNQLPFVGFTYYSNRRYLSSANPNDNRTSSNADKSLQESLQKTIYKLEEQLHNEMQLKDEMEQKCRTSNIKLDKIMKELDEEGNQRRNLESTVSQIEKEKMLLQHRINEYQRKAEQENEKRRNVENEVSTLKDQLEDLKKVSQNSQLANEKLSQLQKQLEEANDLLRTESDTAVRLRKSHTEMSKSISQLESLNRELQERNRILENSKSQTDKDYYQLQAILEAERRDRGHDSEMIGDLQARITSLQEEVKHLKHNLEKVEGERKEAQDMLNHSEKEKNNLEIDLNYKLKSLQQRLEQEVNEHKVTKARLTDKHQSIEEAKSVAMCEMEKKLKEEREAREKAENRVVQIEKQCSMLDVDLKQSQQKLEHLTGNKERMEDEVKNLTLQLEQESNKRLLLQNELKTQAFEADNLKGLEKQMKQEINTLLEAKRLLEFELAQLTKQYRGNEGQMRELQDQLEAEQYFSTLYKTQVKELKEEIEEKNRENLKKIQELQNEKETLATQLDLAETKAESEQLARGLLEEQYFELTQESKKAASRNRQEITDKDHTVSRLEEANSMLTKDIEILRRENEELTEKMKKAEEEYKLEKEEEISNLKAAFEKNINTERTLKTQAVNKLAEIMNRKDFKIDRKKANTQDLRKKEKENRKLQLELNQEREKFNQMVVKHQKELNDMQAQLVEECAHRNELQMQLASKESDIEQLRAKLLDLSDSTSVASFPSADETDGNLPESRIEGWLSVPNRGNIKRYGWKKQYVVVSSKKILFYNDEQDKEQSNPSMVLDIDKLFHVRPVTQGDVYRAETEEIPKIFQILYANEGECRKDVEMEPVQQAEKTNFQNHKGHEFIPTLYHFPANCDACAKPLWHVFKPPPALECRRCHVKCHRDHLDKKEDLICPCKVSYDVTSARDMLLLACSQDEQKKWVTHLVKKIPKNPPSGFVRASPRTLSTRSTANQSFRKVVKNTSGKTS
With `O=c1sn(-c2cccc3ccccc23)c(=O)n1Cc1ccccc1` [TIDEGLUSIB] the Kd was > 30 µM (inactive).
In the case of `CC(=O)Nc1cccc(-n2c(=O)n(C3CC3)c(=O)c3c(Nc4ccc(I)cc4F)n(C)c(=O)c(C)c32)c1` [TRAMETINIB], the Kd is reported as > 30 µM (inactive).

The compounds below were run against T2, ADP/ATP translocase 3 (Homo sapiens, UniProt P12236).
T2 sequence (P12236 whole entry): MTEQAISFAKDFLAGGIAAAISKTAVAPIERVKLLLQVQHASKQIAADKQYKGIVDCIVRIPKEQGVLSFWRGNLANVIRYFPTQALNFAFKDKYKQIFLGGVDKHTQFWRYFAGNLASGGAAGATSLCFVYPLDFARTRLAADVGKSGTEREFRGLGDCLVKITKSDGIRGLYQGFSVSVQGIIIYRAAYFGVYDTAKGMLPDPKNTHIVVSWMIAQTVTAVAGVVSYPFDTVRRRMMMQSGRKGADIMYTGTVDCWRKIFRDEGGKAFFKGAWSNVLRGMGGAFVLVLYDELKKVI
For `O=c1sn(-c2cccc3ccccc23)c(=O)n1Cc1ccccc1` [TIDEGLUSIB], the Kd was > 30 µM (inactive).
`CC(=O)Nc1cccc(-n2c(=O)n(C3CC3)c(=O)c3c(Nc4ccc(I)cc4F)n(C)c(=O)c(C)c32)c1` [TRAMETINIB] was tested, and the Kd was > 30 µM (inactive).

What follows are compounds tested against Serine/threonine-protein kinase 16 (Homo sapiens, UniProt O75716).
Chain of Serine/threonine-protein kinase 16 (O75716 whole entry): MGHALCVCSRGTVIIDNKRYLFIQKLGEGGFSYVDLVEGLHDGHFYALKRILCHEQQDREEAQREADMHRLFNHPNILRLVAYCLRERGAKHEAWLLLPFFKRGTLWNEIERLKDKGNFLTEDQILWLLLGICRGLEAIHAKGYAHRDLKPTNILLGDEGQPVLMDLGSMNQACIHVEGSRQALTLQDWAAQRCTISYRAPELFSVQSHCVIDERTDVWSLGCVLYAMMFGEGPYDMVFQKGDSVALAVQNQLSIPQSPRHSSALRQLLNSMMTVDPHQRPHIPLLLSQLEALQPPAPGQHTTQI
`O=c1sn(-c2cccc3ccccc23)c(=O)n1Cc1ccccc1` [TIDEGLUSIB] was tested, and the Kd was > 30 µM (inactive).
In the case of `CC(=O)Nc1cccc(-n2c(=O)n(C3CC3)c(=O)c3c(Nc4ccc(I)cc4F)n(C)c(=O)c(C)c32)c1` [TRAMETINIB], the Kd is reported as > 30 µM (inactive).

These compounds were tested against Protein-tyrosine kinase 6 (Homo sapiens, UniProt Q13882).
Chain of Protein-tyrosine kinase 6 (Q13882 whole entry): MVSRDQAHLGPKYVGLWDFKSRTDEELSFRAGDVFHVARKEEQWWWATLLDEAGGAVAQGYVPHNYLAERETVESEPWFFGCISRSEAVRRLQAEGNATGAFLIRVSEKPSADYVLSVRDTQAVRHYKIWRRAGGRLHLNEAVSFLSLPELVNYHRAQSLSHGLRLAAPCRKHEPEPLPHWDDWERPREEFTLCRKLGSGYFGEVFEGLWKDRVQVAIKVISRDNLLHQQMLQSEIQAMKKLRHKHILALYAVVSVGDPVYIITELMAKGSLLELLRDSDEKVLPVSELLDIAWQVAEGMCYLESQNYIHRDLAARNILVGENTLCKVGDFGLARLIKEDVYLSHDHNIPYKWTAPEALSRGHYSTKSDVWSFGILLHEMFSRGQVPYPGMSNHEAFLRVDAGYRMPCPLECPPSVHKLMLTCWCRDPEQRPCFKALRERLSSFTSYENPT
`O=c1sn(-c2cccc3ccccc23)c(=O)n1Cc1ccccc1` [TIDEGLUSIB] was tested, and the Kd was > 30 µM (inactive).
With `CC(=O)Nc1cccc(-n2c(=O)n(C3CC3)c(=O)c3c(Nc4ccc(I)cc4F)n(C)c(=O)c(C)c32)c1` [TRAMETINIB] the Kd was > 30 µM (inactive).

What follows are compounds tested against Tyrosine-protein kinase Yes (Homo sapiens, UniProt P07947).
Chain of Tyrosine-protein kinase Yes (P07947 whole entry): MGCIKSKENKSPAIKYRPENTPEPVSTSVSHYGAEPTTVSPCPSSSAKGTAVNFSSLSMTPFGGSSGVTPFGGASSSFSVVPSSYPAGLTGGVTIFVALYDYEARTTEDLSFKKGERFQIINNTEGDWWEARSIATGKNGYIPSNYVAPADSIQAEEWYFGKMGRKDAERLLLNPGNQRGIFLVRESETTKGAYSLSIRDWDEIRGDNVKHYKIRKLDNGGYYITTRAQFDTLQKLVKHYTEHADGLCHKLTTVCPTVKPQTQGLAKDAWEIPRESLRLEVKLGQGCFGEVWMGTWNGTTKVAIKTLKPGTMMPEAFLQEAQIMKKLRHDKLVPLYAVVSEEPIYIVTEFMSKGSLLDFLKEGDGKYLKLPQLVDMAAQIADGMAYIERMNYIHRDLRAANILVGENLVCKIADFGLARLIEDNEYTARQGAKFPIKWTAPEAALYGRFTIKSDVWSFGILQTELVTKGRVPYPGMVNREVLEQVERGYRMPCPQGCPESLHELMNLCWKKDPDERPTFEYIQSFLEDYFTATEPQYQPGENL
In the case of `O=c1sn(-c2cccc3ccccc23)c(=O)n1Cc1ccccc1` [TIDEGLUSIB], the Kd is reported as > 30 µM (inactive).
With `CC(=O)Nc1cccc(-n2c(=O)n(C3CC3)c(=O)c3c(Nc4ccc(I)cc4F)n(C)c(=O)c(C)c32)c1` [TRAMETINIB] the Kd was > 30 µM (inactive).

What follows are compounds tested against Mitogen-activated protein kinase kinase kinase kinase 5 (Homo sapiens, UniProt Q9Y4K4).
In the case of `O=c1sn(-c2cccc3ccccc23)c(=O)n1Cc1ccccc1` [TIDEGLUSIB], the Kd is reported as > 30 µM (inactive).
`CC(=O)Nc1cccc(-n2c(=O)n(C3CC3)c(=O)c3c(Nc4ccc(I)cc4F)n(C)c(=O)c(C)c32)c1` [TRAMETINIB] was tested, and the Kd was > 30 µM (inactive).

What follows are compounds tested against T3, Ras-related protein Rab-27A (Homo sapiens, UniProt P51159).
T3 sequence (P51159 whole entry): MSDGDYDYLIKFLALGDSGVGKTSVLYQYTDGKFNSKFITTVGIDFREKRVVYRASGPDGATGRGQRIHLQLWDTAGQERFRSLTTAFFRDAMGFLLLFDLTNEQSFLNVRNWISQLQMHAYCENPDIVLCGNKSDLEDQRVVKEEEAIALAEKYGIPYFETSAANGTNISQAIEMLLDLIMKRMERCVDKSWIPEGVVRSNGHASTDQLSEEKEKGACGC
`O=c1sn(-c2cccc3ccccc23)c(=O)n1Cc1ccccc1` [TIDEGLUSIB] was tested, and the Kd was > 30 µM (inactive).
`CC(=O)Nc1cccc(-n2c(=O)n(C3CC3)c(=O)c3c(Nc4ccc(I)cc4F)n(C)c(=O)c(C)c32)c1` [TRAMETINIB] was tested, and the Kd was > 30 µM (inactive).

The compounds below were run against Ras-related protein Rab-6A (Homo sapiens, UniProt P20340).
Chain of Ras-related protein Rab-6A (P20340 whole entry): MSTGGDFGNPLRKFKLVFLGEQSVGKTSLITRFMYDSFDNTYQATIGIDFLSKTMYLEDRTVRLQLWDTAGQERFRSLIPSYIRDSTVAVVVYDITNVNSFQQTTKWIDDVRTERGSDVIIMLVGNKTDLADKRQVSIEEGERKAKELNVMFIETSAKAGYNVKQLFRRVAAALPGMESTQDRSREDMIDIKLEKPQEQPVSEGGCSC
With `O=c1sn(-c2cccc3ccccc23)c(=O)n1Cc1ccccc1` [TIDEGLUSIB] the Kd was > 30 µM (inactive).
For `CC(=O)Nc1cccc(-n2c(=O)n(C3CC3)c(=O)c3c(Nc4ccc(I)cc4F)n(C)c(=O)c(C)c32)c1` [TRAMETINIB], the Kd was > 30 µM (inactive).

These compounds were tested against T4, Interleukin-1 receptor-associated kinase 3 (Homo sapiens, UniProt Q9Y616).
T4 sequence (Q9Y616 whole entry): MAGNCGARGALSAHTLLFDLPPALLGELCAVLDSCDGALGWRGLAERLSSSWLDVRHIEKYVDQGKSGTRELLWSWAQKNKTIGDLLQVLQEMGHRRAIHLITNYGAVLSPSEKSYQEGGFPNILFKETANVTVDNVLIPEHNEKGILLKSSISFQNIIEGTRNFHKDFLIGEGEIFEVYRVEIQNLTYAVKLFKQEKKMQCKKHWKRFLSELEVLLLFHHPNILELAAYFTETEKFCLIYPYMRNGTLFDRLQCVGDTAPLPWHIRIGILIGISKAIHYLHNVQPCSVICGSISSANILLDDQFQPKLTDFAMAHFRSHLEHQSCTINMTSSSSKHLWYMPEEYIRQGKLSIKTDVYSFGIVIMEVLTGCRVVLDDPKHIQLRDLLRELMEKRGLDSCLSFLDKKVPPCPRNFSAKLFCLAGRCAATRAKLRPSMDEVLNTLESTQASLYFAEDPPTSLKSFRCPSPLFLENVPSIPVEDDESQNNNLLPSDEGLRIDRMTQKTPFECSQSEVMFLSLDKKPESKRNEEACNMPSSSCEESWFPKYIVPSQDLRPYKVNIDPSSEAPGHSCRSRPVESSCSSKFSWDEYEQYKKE
For `O=c1sn(-c2cccc3ccccc23)c(=O)n1Cc1ccccc1` [TIDEGLUSIB], the Kd was > 30 µM (inactive).
For `CC(=O)Nc1cccc(-n2c(=O)n(C3CC3)c(=O)c3c(Nc4ccc(I)cc4F)n(C)c(=O)c(C)c32)c1` [TRAMETINIB], the Kd was > 30 µM (inactive).

Each compound was assayed against T5, Ferrochelatase, mitochondrial (Homo sapiens, UniProt P22830).
T5 sequence (P22830 whole entry): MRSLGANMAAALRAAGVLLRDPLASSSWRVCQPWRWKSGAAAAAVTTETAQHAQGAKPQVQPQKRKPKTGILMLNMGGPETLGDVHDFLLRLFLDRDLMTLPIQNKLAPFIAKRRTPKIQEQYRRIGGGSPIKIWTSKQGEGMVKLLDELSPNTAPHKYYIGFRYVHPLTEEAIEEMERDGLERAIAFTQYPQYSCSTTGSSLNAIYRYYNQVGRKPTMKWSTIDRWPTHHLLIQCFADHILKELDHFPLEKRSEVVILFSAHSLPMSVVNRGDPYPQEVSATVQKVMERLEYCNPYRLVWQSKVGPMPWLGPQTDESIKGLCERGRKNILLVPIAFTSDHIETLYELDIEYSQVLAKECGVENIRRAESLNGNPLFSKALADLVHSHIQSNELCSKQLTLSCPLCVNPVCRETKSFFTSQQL
With `O=c1sn(-c2cccc3ccccc23)c(=O)n1Cc1ccccc1` [TIDEGLUSIB] the Kd was > 30 µM (inactive).
In the case of `CC(=O)Nc1cccc(-n2c(=O)n(C3CC3)c(=O)c3c(Nc4ccc(I)cc4F)n(C)c(=O)c(C)c32)c1` [TRAMETINIB], the Kd is reported as > 30 µM (inactive).

The compounds below were run against Mitotic checkpoint serine/threonine-protein kinase BUB1 (Homo sapiens, UniProt O43683).
Chain of Mitotic checkpoint serine/threonine-protein kinase BUB1 (O43683 whole entry): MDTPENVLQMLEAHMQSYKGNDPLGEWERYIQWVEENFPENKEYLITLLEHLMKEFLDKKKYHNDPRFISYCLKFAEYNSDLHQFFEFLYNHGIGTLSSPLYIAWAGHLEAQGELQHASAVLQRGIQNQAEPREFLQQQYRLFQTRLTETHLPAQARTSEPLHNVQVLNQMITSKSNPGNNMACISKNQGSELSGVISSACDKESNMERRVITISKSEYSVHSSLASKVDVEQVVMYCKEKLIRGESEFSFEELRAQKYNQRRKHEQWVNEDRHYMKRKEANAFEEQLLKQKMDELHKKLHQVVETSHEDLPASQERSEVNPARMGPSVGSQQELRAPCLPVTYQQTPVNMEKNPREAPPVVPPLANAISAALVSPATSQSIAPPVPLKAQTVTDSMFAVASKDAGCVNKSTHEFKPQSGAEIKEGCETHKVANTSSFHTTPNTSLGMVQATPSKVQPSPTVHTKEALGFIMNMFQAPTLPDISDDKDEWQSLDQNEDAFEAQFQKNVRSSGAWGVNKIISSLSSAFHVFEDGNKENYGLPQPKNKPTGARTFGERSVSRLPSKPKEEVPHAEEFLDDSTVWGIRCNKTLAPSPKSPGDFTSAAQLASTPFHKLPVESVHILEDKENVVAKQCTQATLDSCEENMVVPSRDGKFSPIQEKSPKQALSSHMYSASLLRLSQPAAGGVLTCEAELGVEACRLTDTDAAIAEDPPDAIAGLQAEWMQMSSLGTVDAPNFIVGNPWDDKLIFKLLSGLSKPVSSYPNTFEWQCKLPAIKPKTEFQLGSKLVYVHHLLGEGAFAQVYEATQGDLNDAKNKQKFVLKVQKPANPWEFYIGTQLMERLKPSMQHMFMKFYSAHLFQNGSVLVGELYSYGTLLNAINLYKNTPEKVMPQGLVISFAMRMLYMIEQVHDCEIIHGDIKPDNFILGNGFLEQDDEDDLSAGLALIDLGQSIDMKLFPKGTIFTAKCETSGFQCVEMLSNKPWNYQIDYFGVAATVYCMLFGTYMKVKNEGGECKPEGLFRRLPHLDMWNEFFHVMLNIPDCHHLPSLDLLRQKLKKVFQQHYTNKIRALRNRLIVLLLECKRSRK
For `O=c1sn(-c2cccc3ccccc23)c(=O)n1Cc1ccccc1` [TIDEGLUSIB], the Kd was > 30 µM (inactive).
`CC(=O)Nc1cccc(-n2c(=O)n(C3CC3)c(=O)c3c(Nc4ccc(I)cc4F)n(C)c(=O)c(C)c32)c1` [TRAMETINIB] was tested, and the Kd was > 30 µM (inactive).
